The values that follow come from patent US9296774B2, “Halogenated dideoxy sugar derivates, preparation method and application thereof” (Suzhou Harmony Biotechnology Co., Ltd., priority 2009, dated 2016).

Series [1] concerns 05-732 human bone tumor. Briefly: Mouse transplant tumor, 05-732 human osteosarcoma. As to conditions: for inhibitive effect on mouse transplant tumor (in words): 05-732 human bone tumor, 125 mg/kg; for Inhibtion of tumor growth / Weight of tumor / weight end / weight start: 05-732 human osteosarcoma, 125 mg/kg once a day for 7 days; for weight end: animal weight at end; for weight start: animal weight at start.
Description: (§1) Saline solution was used as a control. The positive group CTX was treated with the compounds at an amount of 0.4 ml/20 g. The compounds were applied once a day for consecutive 7 days.

Series [2] has as its system MX-1 human breast cancer cells. Briefly: Mouse transplant tumor, MX-1 human breast cancer.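 On all read-outs here: mice given saline served as the control group.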 As to conditions: for inhibitive effect on mouse transplant tumor (in words): 125 mg/kg; for Inhibition of tumor growth / Weight of tumor / weight end / weight start: 125 mg/kg once a day for 7 days; for weight end: animal weight at end; for weight start: animal weight at start.
Description: as §1
The subject of series [3] is MGC human stomach cancer cells. Put plainly: Mouse transplant tumor, MGC human stomach cancer.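 On all read-outs here: control group received saline vehicle.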 As to conditions: for inhibitive effect on mouse transplant tumor (in words): 125 mg/kg; for Inhibition of tumor growth / Weight of tumor / weight end / weight start: 125 mg/kg once a day for 7 days; for weight end: animal weight at end; for weight start: animal weight at start.
Description: Saline solution was used as a control. The positive group CTX was treated with the compounds at an amount of 0.4 ml/20 g. The compounds were applied once a day for consecutive 7 days. The animals were then compensated.

Series [4] is described as follows: in vivo. As to conditions: mouse, po.
For series [5], the system named is AsPc human pancreatic cancer cells. Put plainly: Mouse transplant tumor, AsPc human pancreatic cancer.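 On all read-outs here: Saline-treated mice served as the control group, with a CTX-treated group as positive reference.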 As to conditions: for inhibitive effect on mouse transplant tumor (in words): 125 mg/kg; for Inhibition of tumor growth / Weight of tumor / weight end / weight start: 125 mg/kg once a day for 7 days; for weight end: animal weight at end; for weight start: animal weight at start.
Description: as §1

The subject of series [6] is B16 malignant melanoma. Briefly: Mouse transplant tumor, B16 malignant melanoma. As to conditions: for Inhibition of tumor growth (%) / Weight of tumor / weight end / weight start: B16, 125 mg/kg once a day for 7 days; for weight end: body weight at end; for weight start: body weight at start; for inhibitive effect on mouse transplant tumor (in words): B16 malignant melanoma, 125 mg/kg.
Description: as §1

The test system of series [7] is anaplastic thyroid carcinoma TA-K cells. Briefly: Mouse transplant tumor, human anaplastic thyroid carcinoma TA-K.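 On all read-outs here: Tumor-bearing mice compared against a saline-treated control group.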 As to conditions: for inhibitive effect on mouse transplant tumor (in words): anaplastic thyroid carcinoma TA-K, 125 mg/kg; for Inhibition of tumor growth / Weight of tumor / weight end / weight start: human anaplastic thyroid carcinoma TA-K, 125 mg/kg once a day for 7 days; for weight end: animal weight at end; for weight start: animal weight at start.
Description: as §1

A short description of series [8]: in vivo. As to conditions: mouse, ip.
The subject of series [9] is mouse. Put plainly: Acute toxicity (LD50), mouse ig.
The subject of series [10] is mouse. Put plainly: Acute toxicity (LD50), mouse ip injection. As to conditions: mouse ip after injection.

Entries after “also recorded” stand apart in the source; their conditions may differ.

As for `CC(=O)OCC1OC(Br)C(Br)CC1OC(C)=O` (single isomer, unassigned) [Compound 3], in [1], the “inhibitive effect on mouse transplant tumor (in words)” value (shortened to “inhibitive effect”) is given as “good inhibitive effect; also recorded: significant effect”, the “Inhibtion of tumor growth” value came to 71.5, the Weight of tumor is on record as 0.8 and the weight end is given as 18.3. Besides, the weight start in series [1] is 18.2. Moreover, in [2], the “inhibitive effect” value is listed as “good inhibitive effect; also recorded: significant effect”, the “Inhibition of tumor growth” value is reported as 75.8, the Weight of tumor is on record as 0.6 and the weight end worked out at 18.3. In addition, the weight start in series [2] was determined as 18.2. In [3], the “inhibitive effect” value is reported as “good inhibitive effect; also recorded: significant effect”, the “Inhibition of tumor growth” value came out at 72.5, the Weight of tumor came out at 0.7 and the weight end is 18.3. Besides, the weight start in series [3] was found to be 18.2. The compound also displayed an LD50 in series [4] of 2320 mg/kg. Further, in [5], the “inhibitive effect” value was “good inhibitive effect; also recorded: significant effect”, the “Inhibition of tumor growth” value is 77.3, the Weight of tumor worked out at 0.5 and the weight end is on record as 18.3. The same compound returned a weight start in series [5] of 18.2. In [6], the “Inhibition of tumor growth (%)” value turned out to be 76.8%, the Weight of tumor is on record as 0.6, the weight end was 18.3 and the weight start turned out to be 18.2. In addition, in series [6], the “inhibitive effect” value is “good inhibitive effect; also recorded: significant effect”. In [7], the “inhibitive effect” value was “good inhibitive effect; also recorded: significant effect”, the “Inhibition of tumor growth” value is reported as 73.2, the Weight of tumor is 0.7 and the weight end was 18.3. For the same compound, in [7], the weight start is 18.2. The LD50 in series [8] came to 359 mg/kg.
On to `CC(=O)OCC1OC(Br)C(Br)CC1OC(C)=O` (single isomer, unassigned) [Compound 4], for which the LD50 in series [9] came to 2389.2 mg/kg; in series [10], 356.2 mg/kg.
Turning to `CC(=O)OCC1OC(OP(=O)(NCCCl)NCCCl)CC(Br)C1OC(C)=O` (single isomer, unassigned) [Compound 5], in series [1], the “inhibitive effect” value was “good inhibitive effect; also recorded: significant effect”, the “Inhibtion of tumor growth” value was determined as 74.9, the Weight of tumor was 0.7 and the weight end was found to be 18.6. In series [1], this compound registered a weight start of 18.3. In addition, in series [2], the “inhibitive effect” value is listed as “good inhibitive effect; also recorded: significant effect”, the “Inhibition of tumor growth” value turned out to be 83.6, the Weight of tumor is recorded as 0.4 and the weight end amounted to 18.6. In addition, the weight start in [2] worked out at 18.3. For the same compound, in [3], the “inhibitive effect” value is given as “good inhibitive effect; also recorded: significant effect”, the “Inhibition of tumor growth” value is 75.7, the Weight of tumor worked out at 0.6 and the weight end is on record as 18.6. The compound also displayed a weight start in [3] of 18.3. The compound further had an LD50 in [4] of 2120 mg/kg. In series [5], the “inhibitive effect” value is reported as “good inhibitive effect; also recorded: significant effect”, the “Inhibition of tumor growth” value was found to be 81.5, the Weight of tumor stood at 0.4 and the weight end stood at 18.6. The weight start in [5] came out at 18.3. In series [6], the “Inhibition of tumor growth (%)” value came out at 76.4%, the Weight of tumor worked out at 0.6, the weight end was found to be 18.6 and the weight start came to 18.3. In series [6], the “inhibitive effect” value is “good inhibitive effect; also recorded: significant effect”. Further, in series [7], the “inhibitive effect” value was “good inhibitive effect; also recorded: significant effect”, the “Inhibition of tumor growth” value was determined as 76.6, the Weight of tumor is 0.6 and the weight end is reported as 18.6. In series [7], this compound registered a weight start of 18.3. The LD50 in [8] amounted to 301 mg/kg.
Regarding `CC(=O)OCC1OC(OP(=O)(NCCCl)NCCCl)CC(Br)C1OC(C)=O` (single isomer, unassigned) [Compound 6], the LD50 in [9] is given as 2205.8 mg/kg; in series [10], 307.1 mg/kg.
As to `CC(=O)OCC1OC(OP(=O)(NCCCl)NCCCl)C(Br)CC1OC(C)=O` (single isomer, unassigned) [Compound 7], in series [1], the “inhibitive effect” value is listed as “good inhibitive effect; also recorded: significant effect”, the “Inhibtion of tumor growth” value came to 81.3, the Weight of tumor came out at 0.5 and the weight end was 18.4. In series [1], the weight start turned out to be 18.3. Besides, in series [2], the “inhibitive effect” value is “good inhibitive effect; also recorded: significant effect”, the “Inhibition of tumor growth” value is reported as 80.8, the Weight of tumor is given as 0.5 and the weight end turned out to be 18.4. Moreover, the weight start in series [2] amounted to 18.3. In addition, in series [3], the “inhibitive effect” value is listed as “good inhibitive effect; also recorded: significant effect”, the “Inhibition of tumor growth” value was found to be 83.8, the Weight of tumor came to 0.4 and the weight end is reported as 18.4. In [3], this compound showed a weight start of 18.3. The compound also showed an LD50 in [4] of 2220 mg/kg. In addition, in [5], the “inhibitive effect” value is listed as “good inhibitive effect; also recorded: significant effect”, the “Inhibition of tumor growth” value worked out at 73.6, the Weight of tumor was 0.6 and the weight end was 18.4. Further, the weight start in series [5] came out at 18.3. In series [6], the “Inhibition of tumor growth (%)” value amounted to 80.4%, the Weight of tumor is listed as 0.5, the weight end was determined as 18.4 and the weight start is 18.3. Further, in series [6], the “inhibitive effect” value is reported as “good inhibitive effect; also recorded: significant effect”. Besides, in [7], the “inhibitive effect” value was “good inhibitive effect; also recorded: significant effect”, the “Inhibition of tumor growth” value turned out to be 84.2, the Weight of tumor is 0.4 and the weight end is recorded as 18.4. The weight start in [7] is given as 18.3. This compound also registered an LD50 in [8] of 316 mg/kg.
As to `CC(=O)OCC1OC(OP(=O)(O)N(CCCl)CCCl)CC(Br)C1OC(C)=O` (stereo not drawn) [Compound 9], the values for the LD50 in series [4] and in series [8] were 2140 mg/kg and 307 mg/kg, respectively.
The matching figures for `CC(=O)OCC1OC(OP(=O)(O)N(CCCl)CCCl)C(Br)CC1OC(C)=O` (stereo not drawn) [Compound 11]: 2030 mg/kg and 323 mg/kg.
As for `COc1cc(C2c3cc4c(cc3C(C3CC(Br)C(OC(C)=O)C(COC(C)=O)O3)C3COC(=O)C23)OCO4)cc(OC)c1O` (stereo not drawn) [Compound 13], the “inhibitive effect” value in series [1], in series [2], in series [3], in series [5], in series [6] and in series [7] was “good inhibitive effect” throughout. The LD50 came to 1830 mg/kg in series [4] and 299 mg/kg in series [8].
Take `COc1cc(C2c3cc4c(cc3C(C3OC(COC(C)=O)C(OC(C)=O)CC3Br)C3COC(=O)C23)OCO4)cc(OC)c1O` (stereo not drawn) [Compound 14]: the “inhibitive effect” value in series [1], in series [2], in series [3], in series [5], in [6] and in [7] was “good inhibitive effect; also recorded: significant effect” throughout. The “Inhibtion of tumor growth” value in series [1] turned out to be 72.3. Further, the Weight of tumor in series [1] is listed as 0.8; in [2], 0.6; in [3] it was 0.7; in series [5], 0.3; in series [6], 0.6; in [7] it was 0.6. Further, the “Inhibition of tumor growth” value stood at 76.3 in [2], 71.9 in [3], 75.2 in series [5] and 76.2 in series [7]. Moreover, the figures for the LD50 in series [4] and in series [8] were 1970 mg/kg and 300 mg/kg, respectively. In addition, in series [6], the “Inhibition of tumor growth (%)” value stood at 76.2%.
